Data set [1] addresses JAK3 (Homo sapiens (Human), UniProt P52333). Put plainly: JAK kinase assay (HTRF), JAK3. The format is biochemical. The note with it: catalytic domain, His-tag, ATP at Km (2 μM). As to the method: (§1) Human baculovirus-expressed JAK1, 2, 3 and TYK2 were purchased from Carna Biosciences, Inc. All four purified enzymes contain only the catalytic domain. JAK1 (aa 850-1154) and TYK2 (aa 871-1187) are expressed with an N-terminally fused GST-tag, and JAK2 and JAK3 with an N-terminally fused His-tag.
(§2) Inhibition of phosphorylation of a synthetic peptide was measured in an HTRF-based assay using the TK substrate-Biotin from the Cisbio HTRFKinEASE TK kit. First, 2 μl of TK solution (TK substrate-biotin in kinase buffer [1× enzymatic buffer from HTRFKinEASE TK kit, 1 mM DTT]) is added to a plate containing 1 μl prediluted compound (final assay concentration DMSO: 0.75%). Then, 5 μl kinase-ATP mix (prepared in kinase buffer) is added to the wells and the plates are incubated at RT for 20-30 min. For all four kinases a concentration of ATP that corresponded to the Km for ATP was used. The final concentrations of buffers, substrate, kinase and ATP were: JAK1: 50 mM Hepes buffer pH 7.0, 0.01% BSA, 10 mM MgCl2, 1 mM DTT, 7 μM ATP, 50 nM SEB, 1 μM TK Substrate-Biotin and 5 ng JAK1; JAK2: 50 mM Hepes buffer pH 7.0, 0.01% BSA, 5 mM MgCl2, 1 mM DTT, 4 μM ATP, 1 μM TK Substrate-Biotin and 0.1 ng JAK2; JAK3: 50 mM Hepes buffer pH 7.0, 0.01% BSA, 5 mM MgCl2, 1 mM DTT, 2 μM ATP, 1 μM TK Substrate-Biotin and 0.3 ng JAK3; TYK2: 50 mM Hepes buffer pH 7.0, 0.01% BSA, 5 mM MgCl2, 1 mM DTT, 13 μM ATP, 50 nM SEB, 1 μM TK Substrate-Biotin and 0.8 ng TYK2. Thereafter, the kinase reaction is stopped by adding 4 μl detection mix (final concentrations: 50 mM Hepes buffer pH 7.0, 0.01% BSA, 0.8 M KF, 20 mM EDTA, 42 nM Streptavidin-XL665 and 1:400 STK Ab Cryptate) and the plates are incubated overnight in the dark. The HTRF signal is read using an Envision plate reader.

Data set [2] has as its target JAK2 (Homo sapiens (Human), UniProt O60674). Briefly: JAK kinase assay (HTRF), JAK2. The class given is biochemical. The note with it: catalytic domain, His-tag, ATP at Km (4 μM). The procedure:
as §1, §2
On the technique in general: TR-FRET usually uses a lanthanide donor and a delayed reading to cut background.

The nature of data set [3]: in vitro metabolic stability in human liver microsomes. To be noted: compound 0.5 μM, human liver microsomes 0.5 mg/mL, NADPH, 40 min, 37° C.; for CLint scaled at 0.5 μM: human, liver microsomes, read-out: Human liver microsome Clapp (apparent intrinsic clearance). The class given is in vitro ADME. The procedure:
To assess the in vitro metabolic stability, the compounds (0.5 μM) were incubated in duplicates with human liver microsomes (0.5 mg/mL) in phosphate buffer and NADPH, in 96-well plates for 40 min (37° C.), using a liquid handling robot (Hamilton Microlab Star). Sample aliquots were taken at 0, 5, 10, 20 and 40 min, and dispensed into cold acetonitrile, in order to stop the reactions. The plates were centrifuged for 30 minutes before the samples were analyzed using liquid chromatography coupled to a time-of-flight mass spectrometer (AB Sciex API5600). The compound depletion over time was used to estimate the elimination rate constant, from which the apparent intrinsic clearance, Clapp, was calculated and the values are listed in table 2.
Background: Liver microsomes are vesicles of endoplasmic reticulum, rich in cytochrome P450 enzymes.

Data set [4] concerns the target TYK2 (Homo sapiens (Human), UniProt P29597). Put plainly: JAK kinase assay (HTRF), TYK2. The format is biochemical. The note with it: catalytic domain (aa 871-1187), GST-tag, ATP at Km (13 μM). As to the method: as §1, §2
In data set [5] the target is JAK1 (Homo sapiens (Human), UniProt P23458). Briefly: JAK kinase assay (HTRF), JAK1. The class given is biochemical. The note with it: catalytic domain (aa 850-1154), GST-tag, ATP at Km (7 μM). As to the method:
as §1, §2

As usually defined, the EC50 is the concentration at which the effect is half-maximal.

Sequence of JAK3 (P52333 822-1111): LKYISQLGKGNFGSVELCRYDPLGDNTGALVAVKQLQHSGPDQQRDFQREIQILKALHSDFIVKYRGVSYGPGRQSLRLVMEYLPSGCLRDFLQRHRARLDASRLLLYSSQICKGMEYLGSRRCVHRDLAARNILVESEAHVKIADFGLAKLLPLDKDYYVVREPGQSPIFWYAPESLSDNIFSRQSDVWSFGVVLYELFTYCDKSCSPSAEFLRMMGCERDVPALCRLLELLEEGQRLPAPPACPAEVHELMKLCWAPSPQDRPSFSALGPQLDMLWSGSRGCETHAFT
Sequence of TYK2 (P29597 871-1187): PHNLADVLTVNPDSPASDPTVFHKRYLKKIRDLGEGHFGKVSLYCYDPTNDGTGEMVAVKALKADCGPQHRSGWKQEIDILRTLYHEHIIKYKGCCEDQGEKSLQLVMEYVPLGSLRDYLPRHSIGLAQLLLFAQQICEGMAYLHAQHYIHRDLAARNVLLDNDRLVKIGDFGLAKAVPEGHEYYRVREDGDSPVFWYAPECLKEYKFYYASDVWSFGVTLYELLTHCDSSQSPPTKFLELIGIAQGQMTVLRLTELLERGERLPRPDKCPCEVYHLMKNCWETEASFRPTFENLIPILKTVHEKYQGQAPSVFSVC
Sequence of JAK2 (O60674 849-1124): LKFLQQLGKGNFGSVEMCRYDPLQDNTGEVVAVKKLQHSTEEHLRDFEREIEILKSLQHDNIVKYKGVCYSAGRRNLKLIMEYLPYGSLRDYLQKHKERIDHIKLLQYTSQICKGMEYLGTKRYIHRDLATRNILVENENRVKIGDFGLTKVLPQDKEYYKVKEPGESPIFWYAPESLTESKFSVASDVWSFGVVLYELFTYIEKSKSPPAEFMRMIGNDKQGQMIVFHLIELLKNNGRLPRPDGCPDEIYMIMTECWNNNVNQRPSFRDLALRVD
Sequence of JAK1 (P23458 850-1154): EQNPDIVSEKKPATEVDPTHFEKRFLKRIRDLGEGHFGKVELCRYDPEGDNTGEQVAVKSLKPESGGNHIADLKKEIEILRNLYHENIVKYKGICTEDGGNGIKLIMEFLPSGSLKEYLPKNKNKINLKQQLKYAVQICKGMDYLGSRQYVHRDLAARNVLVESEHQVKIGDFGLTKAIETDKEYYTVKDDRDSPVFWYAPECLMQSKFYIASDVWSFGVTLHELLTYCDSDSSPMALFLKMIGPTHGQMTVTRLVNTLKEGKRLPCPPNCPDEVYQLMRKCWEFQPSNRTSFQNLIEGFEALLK

Consider `CC[C@]12CN(C#N)CC[C@H]1CCN(c1ncnc3[nH]ccc13)C2` [Example 22, (4aR,8aS)-8a-ethyl-7-(7H-pyrrolo[2,3-d]pyrimidin-4-yl)-3,4,4a,5,6,8-hexahydro-1H-2,7-naphthyridine-2-carbonitrile], for which the concentration for a half-maximal effect (EC50) in data set [1] turned out to be 6 nM; in data set [2], 2 nM; in data set [4], 6 nM; in data set [5], 1 nM. In addition, in data set [3], the CLint scaled at 0.5 μM turned out to be 185 mL/min/kg.

Consider `C[C@]12CN(C#N)C[C@H]1CCN(c1ncnc3[nH]ccc13)C2` [Example 29, (3aS,7aS)-3a-methyl-5-(7H-pyrrolo[2,3-d]pyrimidin-4-yl)-1,3,4,6,7,7a-hexahydropyrrolo[3,4-c]pyridine-2-carbonitrile], for which the EC50 in data set [1] came out at 118 nM; in data set [2] it was 35 nM; in data set [4] it was 123 nM; in data set [5], 10 nM. The CLint scaled at 0.5 μM in data set [3] turned out to be 10 mL/min/kg.

In the case of `CC[C@]12CN(C#N)CC[C@H]1CCN(c1ncnc3[nH]ccc13)C2` (relative stereo) [Example 23, (4aR*,8aS*)-8a-ethyl-7-(7H-pyrrolo[2,3-d]pyrimidin-4-yl)-3,4,4a,5,6,8-hexahydro-1H-2,7-naphthyridine-2-carbonitrile], the 50% effective concentration (EC50) in data set [1] was 14 nM; in data set [2] it was 4 nM; in data set [4], 11 nM; in data set [5], 2 nM. The “Human liver microsome Clapp (apparent intrinsic clearance)” value (“Human liver microsome Clapp” for short) in data set [3] came to 200 mL/min/kg.

On to `C[C@]12CN(c3ccc(C#N)cn3)C[C@H]1CCN(c1ncnc3[nH]ccc13)C2` (racemic) [Example 47], for which the EC50 in data set [1] is 26 nM; in data set [2], 30 nM; in data set [4], 159 nM; in data set [5], 5 nM. In addition, the CLint scaled at 0.5 μM in data set [3] is 133 mL/min/kg.

Take `CC[C@@]12CN(c3ncnc4[nH]ccc34)CC[C@@H]1CCN(S(N)(=O)=O)C2` [Example 18, (4aR,8aS)-8a-ethyl-7-(7H-pyrrolo[2,3-d]pyrimidin-4-yl)-3,4,4a,5,6,8-hexahydro-1H-2,7-naphthyridine-2-sulfonamide]: the EC50 in data set [1] came to 2 nM; in data set [2], 3 nM; in data set [4] it was 17 nM; in data set [5], 2 nM. Besides, the “Human liver microsome Clapp” value in data set [3] was 127 mL/min/kg.

`C[C@]12CN(c3cnc(C#N)cn3)C[C@H]1CCN(c1ncnc3[nH]ccc13)C2` (racemic) [Example 43]: the concentration for a half-maximal effect (EC50) in data set [1] was 37 nM; in data set [2], 22 nM; in data set [4] it was 232 nM; in data set [5], 3 nM. The CLint scaled at 0.5 μM in data set [3] turned out to be 55 mL/min/kg.

As for `CC[C@]12CN(C=O)CC[C@H]1CCN(c1ncnc3[nH]ccc13)C2` (relative stereo) [Example 16, (4aR*,8aS*)-8a-ethyl-7-(7H-pyrrolo[2,3-d]pyrimidin-4-yl)-3,4,4a,5,6,8-hexahydro-1H-2,7-naphthyridine-2-carbaldehyde], the concentration giving a half-maximal response (EC50) was found to be 43 nM in data set [1], 41 nM in data set [2], 176 nM in data set [4] and 13 nM in data set [5]. Further, the CLint scaled at 0.5 μM in data set [3] was 116 mL/min/kg.

With `Cc1cc(N2CC[C@H]3CCN(c4ncnc5[nH]ccc45)C[C@@]3(C)C2)ncc1C#N` (racemic) [Example 8, 6-[(4aS*,8aR*)-8a-methyl-7-(7H-pyrrolo[2,3-d]pyrimidin-4-yl)-3,4,4a,5,6,8-hexahydro-1H-2,7-naphthyridin-2-yl]-4-methyl-pyridine-3-carbonitrile], the concentration for a half-maximal effect (EC50) in data set [1] was 21 nM; in data set [2], 269 nM; in data set [4], 2110 nM; in data set [5], 86 nM. Also, the CLint scaled at 0.5 μM in data set [3] is 200 mL/min/kg.

For the compound `C[C@]12CN(c3ccc(C#N)nn3)C[C@H]1CCN(c1ncnc3[nH]ccc13)C2` (racemic) [Example 42], the concentration for a half-maximal effect (EC50) in data set [1] was determined as 78 nM; in data set [2], 53 nM; in data set [4] it was 574 nM; in data set [5], 10 nM. The CLint scaled at 0.5 μM in data set [3] was 53 mL/min/kg.

Take `CC[C@]12CN(c3nnc(Br)s3)CC[C@H]1CCN(c1ncnc3[nH]ccc13)C2` (relative stereo) [Example 20, 2-[(4aR*,8aS*)-8a-ethyl-7-(7H-pyrrolo[2,3-d]pyrimidin-4-yl)-3,4,4a,5,6,8-hexahydro-1H-2,7-naphthyridin-2-yl]-5-bromo-1,3,4-thiadiazole]: the EC50 in data set [1] is 5 nM; in data set [2], 17 nM; in data set [4], 269 nM; in data set [5], 4 nM. For the same compound, in data set [3], the CLint scaled at 0.5 μM stood at 200 mL/min/kg.

For the compound `CC12CN(c3ccc(C#N)cn3)C[C@@H]1CCN(c1ncnc3[nH]ccc13)C2` (stereo in doubt) [Example 34, 6-[(3aR,7aR)-3a-methyl-5-(7H-pyrrolo[2,3-d]pyrimidin-4-yl)-1,3,4,6,7,7a-hexahydropyrrolo[3,4-c]pyridin-2-yl]pyridine-3-carbonitrile], the half-maximal effective concentration (EC50) in data set [1] was determined as 1170 nM; in data set [2], 927 nM; in data set [4] it was 7010 nM; in data set [5], 192 nM. The CLint scaled at 0.5 μM in data set [3] was determined as 136 mL/min/kg.

In the case of `C[C@]12CN(C#N)CC[C@H]1CCN(c1ncnc3[nH]ccc13)C2` (relative stereo) [Example 2, (4aR*,8aS*)-8a-methyl-7-(7H-pyrrolo[2,3-d]pyrimidin-4-yl)-3,4,4a,5,6,8-hexahydro-1H-2,7-naphthyridine-2-carbonitrile], the EC50 in data set [1] amounted to 25 nM; in data set [2] it was 6 nM; in data set [4] it was 27 nM; in data set [5] it was 1 nM. The “Human liver microsome Clapp” value in data set [3] was found to be 62 mL/min/kg.

Consider `C[C@]12CN(C#N)CC[C@H]1CCN(c1ncnc3[nH]ccc13)C2` [Example 1, (4aR,8aS)-8a-methyl-7-(7H-pyrrolo[2,3-d]pyrimidin-4-yl)-3,4,4a,5,6,8-hexahydro-1H-2,7-naphthyridine-2-carbonitrile], for which the half-maximal effective concentration (EC50) in data set [1] was 15 nM; in data set [2], 4 nM; in data set [4] it was 13 nM; in data set [5] it was 1 nM. Further, in data set [3], the CLint scaled at 0.5 μM was 54 mL/min/kg.

As to `CC12CN(c3ccc(C#N)cn3)C[C@H]1CCN(c1ncnc3[nH]ccc13)C2` (stereo in doubt) [Example 33, 6-[(3aS,7aS)-3a-methyl-5-(7H-pyrrolo[2,3-d]pyrimidin-4-yl)-1,3,4,6,7,7a-hexahydropyrrolo[3,4-c]pyridin-2-yl]pyridine-3-carbonitrile], the concentration giving a half-maximal response (EC50) was determined as 8 nM in data set [1], 5 nM in data set [2], 59 nM in data set [4] and 1 nM in data set [5]. In addition, in data set [3], the CLint scaled at 0.5 μM amounted to 166 mL/min/kg.

`Cc1cc(N2C[C@H]3CCN(c4ncnc5[nH]ccc45)C[C@@]3(C)C2)ncc1C#N` (racemic) [Example 40, 6-[(3aR*,7aS*)-3a-methyl-5-(7H-pyrrolo[2,3-d]pyrimidin-4-yl)-1,3,4,6,7,7a-hexahydropyrrolo[3,4-c]pyridin-2-yl]-4-methyl-pyridine-3-carbonitrile]: the EC50 amounted to 46 nM in data set [1], 28 nM in data set [2], 722 nM in data set [4] and 3 nM in data set [5]. The CLint scaled at 0.5 μM in data set [3] worked out at 200 mL/min/kg.

Turning to `C[C@]12CN(c3ncc(C#N)cn3)CC[C@H]1CCN(c1ncnc3[nH]ccc13)C2` (racemic) [Example 7, 2-[(4aR*,8aS*)-8a-methyl-7-(7H-pyrrolo[2,3-d]pyrimidin-4-yl)-3,4,4a,5,6,8-hexahydro-1H-2,7-naphthyridin-2-yl]pyrimidine-5-carbonitrile], the EC50 in data set [1] was 5 nM; in data set [2], 140 nM; in data set [4], 740 nM; in data set [5], 46 nM.
